Measured values reported in patent US20070197629A1, “Indole derivative and application thereof” (priority 2004, published 2007).
Like-named read-outs stand apart in the source and are kept apart here.

What was measured:
osteoblasts [1] = experiment: Assay of influences on osteoblasts: alkaline phosphatase (ALP) activity in cultured goldfish scales; assay type: cell-based; conditions: for ALP activity, amount of paranitrophenol produced: scales cultured at 15° C. for 6 hours, control 6.00-6.17 (per table)
Text: In accordance with the method described in N. Suzuki and A. Hattori, J. Pineal Res., 33, 253-258, 2002, influences of an indole derivative on bone cells were inspected. A female goldfish (body weight: about 30 g) was put under anesthesia with MS222 (ethyl 3-aminobenzoate, methane sulfonic acid salt) (Aldrich), and a desired number of scales were peeled off. The scales were washed twice in Eagle's minimum essential medium (ICN Biomedicals Inc.) comprising 1% antibiotics (a mixture of penicillin and streptomycin). Medium of the same type was introduced into each well of a 24-well plate in amounts of 1 ml, several scales were introduced to each well (8 scales in general), and 10^−4, 10^−6, and 10^−8 M indole derivatives were applied to separate wells. Subsequently, the scales were cultured at 15° C. for 6 hours. Also, a group to which no indole derivative had been added was prepared (a control group), and influences thereof on osteoclasts and osteoblasts were compared. Two control groups, i.e., a group for inspecting osteoclasts and a group for inspecting osteoblasts, were provided. Specifically, a total of 8 wells were provided for the control and 10^−4, 10^−6, and 10^−8 M indole derivatives (2 wells for each thereof). Accordingly, 3 types of indole derivatives can be inspected with the use of a 24-well plate. After the culture, medium was removed, 0.05 M cacodylate buffer (pH 7.4) containing 10% formalin was added, and the scales were immobilized. The scales were stored in 0.05 M cacodylate buffer at 4° C. until the measurement of enzyme activity was initiated. • (2) Assay of Influences Imposed on Osteoblasts, i.e., Assay of Alkaline Phosphatase (ALP) Activity The immobilized scales were removed from the plate, and the weights thereof were measured. Thereafter, the scales were introduced into a 96-well microplate, 200 μl of 100 mM tris-HCl buffer (pH 9.5) comprising 10 mM paranitrophenol phosphate (substrate), 1 mM magnesium chloride, and 0.1 mM zinc chloride was introduced into each well, the reaction was allowed to proceed at 25° C. for 1 hour, and an aqueous solution of 2N sodium hydroxide (50 μl) was added thereto in order to terminate the reaction. Thereafter, 150 μl of the solution after the reaction was transferred to the other microplate, and the amount of pNP generated by ALP was measured using a spectrophotometer (405 nm) to determine the activity.

osteoclasts [2] = experiment: Assay of influences on osteoclasts: tartaric acid-resistant acid phosphatase (TRAP) activity in cultured goldfish scales; assay type: cell-based; conditions: for TRAP activity, amount of paranitrophenol produced: scales cultured at 15° C. for 6 hours, control 3.43 ± 0.04
Text: In accordance with the method described in N. Suzuki and A. Hattori, J. Pineal Res., 33, 253-258, 2002, influences of an indole derivative on bone cells were inspected.
A female goldfish (body weight: about 30 g) was put under anesthesia with MS222 (ethyl 3-aminobenzoate, methane sulfonic acid salt) (Aldrich), and a desired number of scales were peeled off. The scales were washed twice in Eagle's minimum essential medium (ICN Biomedicals Inc.) comprising 1% antibiotics (a mixture of penicillin and streptomycin). Medium of the same type was introduced into each well of a 24-well plate in amounts of 1 ml, several scales were introduced to each well (8 scales in general), and 10^−4, 10^−6, and 10^−8 M indole derivatives were applied to separate wells. Subsequently, the scales were cultured at 15° C. for 6 hours. Also, a group to which no indole derivative had been added was prepared (a control group), and influences thereof on osteoclasts and osteoblasts were compared. Two control groups, i.e., a group for inspecting osteoclasts and a group for inspecting osteoblasts, were provided. Specifically, a total of 8 wells were provided for the control and 10^−4, 10^−6, and 10^−8 M indole derivatives (2 wells for each thereof). Accordingly, 3 types of indole derivatives can be inspected with the use of a 24-well plate.
After the culture, medium was removed, 0.05 M cacodylate buffer (pH 7.4) containing 10% formalin was added, and the scales were immobilized. The scales were stored in 0.05 M cacodylate buffer at 4° C. until the measurement of enzyme activity was initiated.
2-Bromomelatonin (a compound represented by formula (I) wherein X represents a bromine atom; R^1 represents a hydrogen atom; R^2 represents methyl; R^3, R^5 and R^6 each represent a hydrogen atom; and R^4 represents methyl), which was subjected to the test, was a known compound, and it was synthesized by the method described in M. Somei, Y. Fukui, M. Hasegawa, N. Oshikiri, and T. Hayashi, Heterocycles, 53, 1725-1736, 2000. • (1) Assay of Influences Imposed on Osteoclasts, i.e., Assay of Tartaric Acid-Resistant Acid Phosphatase (TRAP) Activity
The immobilized scales were removed from the plate, and the weights thereof were measured. Thereafter, the scales were introduced into a 96-well microplate, 200 μl of 100 mM acetate buffer containing 20 mM tartaric acid and 10 mM paranitrophenol phosphate (substrate) was introduced to each well, reaction was allowed to proceed at 25° C. for 1 hour, and an aqueous solution of 2N sodium hydroxide (50 μl) was then added in order to terminate the reaction. The solution after the reaction (150 μl) was transferred to the other microplate, and the amount of paranitrophenol (pNP) generated by TRAP was measured using a spectrophotometer (405 nm). The osteoclast activity was indicated in terms of the amount of paranitrophenol phosphate decomposed and that of pNP produced within 1 hour per mg of the scales.

osteoclasts [3] = conditions: reported in N. Suzuki and A. Hattori, J. Pineal Res., 33, 253-258, 2002; cited from earlier work
osteoblasts [4] = conditions: reported in N. Suzuki and A. Hattori, J. Pineal Res., 33, 253-258, 2002; cited from earlier work

Row | melting point | Influence on osteoblasts (in words) (osteoblasts [1]; summary of FIG. 2A, 2B, Tables 2A to 2G) | Influence on osteoclasts (in words) (osteoclasts [2]; summary of FIG. 1A, 1B, Table 1) | SMILES | ALP activity, amount of paranitrophenol produced (osteoblasts [1]; indole derivative 10^−4 M) | ALP activity, amount of paranitrophenol produced (osteoblasts [1]; indole derivative 10^−6 M) | ALP activity, amount of paranitrophenol produced (osteoblasts [1]; indole derivative 10^−8 M) | TRAP activity, amount of paranitrophenol produced (osteoclasts [2]; indole derivative 10^−4 M) | TRAP activity, amount of paranitrophenol produced (osteoclasts [2]; indole derivative 10^−6 M) | TRAP activity, amount of paranitrophenol produced (osteoclasts [2]; indole derivative 10^−8 M) | Influence on osteoclasts (in words) (osteoclasts [3]) | Influence on osteoblasts (in words) (osteoblasts [4])
1 | 142 to 143 °C | – | – | C=CCn1c(Br)c(CCNC(C)=O)c2c(Br)c(OC)c(Br)cc21 [1-Allyl-2,4,6-tribromomelatonin, N-acetyl-1-allyl-2,4,6-tribromo-5-methoxyindole-3-ethanamine] | 6.44 ± 0.44 nmol/mg of scales/hr | 6.79 ± 0.63 nmol/mg of scales/hr | 8.30 ± 0.68 nmol/mg of scales/hr | 2.87 ± 0.10 nmol/mg of scales/hr | 2.89 ± 0.12 nmol/mg of scales/hr | 2.99 ± 0.13 nmol/mg of scales/hr | – | –
2 | 218 to 219 °C | – | – | COc1c(Br)cc2c(c1Br)c(CCNC(C)=O)c(Br)n2Cc1ccccc1 [1-Benzyl-2,4,6-tribromomelatonin, N-acetyl-1-benzyl-2,4,6-tribromo-5-methoxyindole-3-ethanamine] | 7.77 ± 0.37 nmol/mg of scales/hr | 7.92 ± 0.55 nmol/mg of scales/hr | 8.44 ± 1.00 nmol/mg of scales/hr | 2.59 ± 0.24 nmol/mg of scales/hr | 2.83 ± 0.20 nmol/mg of scales/hr | 2.85 ± 0.20 nmol/mg of scales/hr | – | –
3 | – | – | – | COc1c(Br)c(Br)c2[nH]c(Br)c(CCNC(C)=O)c2c1Br [2,4,6,7-Tetrabromomelatonin, 2,4,6,7-tetrabromomelatonin] | 6.12 ± 0.41 nmol/mg of scales/hr | 6.12 ± 0.50 nmol/mg of scales/hr | 7.90 ± 0.73 nmol/mg of scales/hr | 2.71 ± 0.17 nmol/mg of scales/hr | 2.83 ± 0.16 nmol/mg of scales/hr | 3.19 ± 0.14 nmol/mg of scales/hr | – | –
4 | – | – | – | C#CCn1c(Br)c(CCNC(C)=O)c2c(Br)c(OC)c(Br)cc21 [2,4,6-Tribromo-1-propargylmelatonin, N-acetyl-2,4,6-tribromo-5-methoxy-1-propargylindole-3-ethanamine] | 7.55 ± 0.76 nmol/mg of scales/hr | 8.66 ± 0.47 nmol/mg of scales/hr | 7.07 ± 0.75 nmol/mg of scales/hr | 2.78 ± 0.13 nmol/mg of scales/hr | 2.82 ± 0.15 nmol/mg of scales/hr | 2.78 ± 0.15 nmol/mg of scales/hr | – | –
5 | – | – | – | COc1c(Br)cc2[nH]c(Br)c(CCNC(C)=O)c2c1Br [2,4,6-Tribromomelatonin, N-acetyl-2,4,6-tribromo-5-methoxyindole-3-ethanamine] | 6.00 ± 0.38 nmol/mg of scales/hr | 6.61 ± 0.38 nmol/mg of scales/hr | 7.58 ± 0.70 nmol/mg of scales/hr | 2.93 ± 0.18 nmol/mg of scales/hr | 2.87 ± 0.13 nmol/mg of scales/hr | 2.88 ± 0.08 nmol/mg of scales/hr | – | –
6 | 215 to 216 °C | – | – | COc1c(Br)cc2c(c1Br)c(CCNC(C)=O)c(Br)n2S(=O)(=O)c1ccc(C)cc1 [2,4,6-tribromo-1-tosyl-melatonin, N-acetyl-2,4,6-tribromo-5-methoxy 1-tosylindole-3-ethanamine] | – | – | – | – | – | – | – | –
7 | – | – | – | COc1ccc2[nH]c(Br)c(CCNC(C)=O)c2c1 [2-Bromomelatonin] | 5.72 ± 0.47 nmol/mg of scales/hr | 6.03 ± 0.66 nmol/mg of scales/hr | 7.41 ± 0.35 nmol/mg of scales/hr | 2.83 ± 0.23 nmol/mg of scales/hr | 2.62 ± 0.17 nmol/mg of scales/hr | 3.02 ± 0.23 nmol/mg of scales/hr | – | –
8 | – | suppressively acts | suppressively acts | COc1ccc2[nH]cc(CCNC(C)=O)c2c1 [Melatonin, N-acetyl-5-methoxytryptamine, reference compound] | 5.19 ± 0.36 nmol/mg of scales/hr | 5.42 ± 0.25 nmol/mg of scales/hr | 5.45 ± 0.27 nmol/mg of scales/hr | 2.67 ± 0.11 nmol/mg of scales/hr | 2.69 ± 0.15 nmol/mg of scales/hr | 2.91 ± 0.13 nmol/mg of scales/hr | act suppressively | act suppressively
